The subject of data set [1] is Pseudomonas aeruginosa (ATCC 15442). Put plainly: Biocidal activity against simulated biofilm systems (alginate beads). The data set is classed as cell-based. The source says: A biofilm simulation system, alginate beads, developed by the Biofilm Bozeman Institute Montana (Grobe, K. J, Zahller, J and Stewart P. S., 2002 in “Role of dose concentration in biocide efficacy against Pseudomonas aeruginosa Biofilms”, J. Industrial Microbiology & Biotechnology, vol. 29, pp 10-15), was used in order to evaluate the efficacy of bromine/urea against biofilm.
The biofilm simulation was created by entrapping bacteria in alginate gel beads. A plate of R2A agar was streaked with Pseudomonas aeruginosa (ATCC 15442) and incubated at 35° C. overnight. Buffer phosphate at pH 7.2 was used to scrap off the bacteria from the agar plate and to create a suspension. The bacterial suspension was mixed with an equal volume of an aqueous 4% sodium alginate solution, to make a final 2% alginate solution. The alginate and bacterial slurry were placed in a 50 ml syringe attached to a gauge needle (22), connected to a compressed air tank, allowing the syringe be pressurized. At 20 psig pressure a stream of small drops was forced out and dropped into a stirred solution of 50 mM CaCl2. The Ca^+2 cross linked the alginate, and semi solid beads with entrapped bacterial cells were formed. The beads were allowed to stir in the CaCl2 solution for about 20 minutes, and then rinsed in a dilute 5 mM CaCl2 solution. Several flasks containing 100 beads each were incubated overnight at 35° C. on a rotating shaker in a buffer solution (at pH 7) with 5 mM addition of CaCl2 to maintain the beads structure. The resulting beads diameter is about 2 mm
At the beginning of the experiment, the supernatant of the beads buffer suspension containing 5 mM CaCl2 was decanted and replaced by the 100 ml biocide solution with the required concentration. Chlorourea compositions prepared as in Example 1, and bromourera composition prepared as in Example 2, were used for the biocidal experiments. Urea-bromine compositions prepared by dissolving urea 15.02 g (250.3 mmol, 15% concentration) and 1.17 g Br2 (7.32 mmol, 1.17% concentration) in 84 g H2O (34.2:1 urea:Br2 molar ratio). After different interval contact times, 10 beads were removed and placed in a 5 g/l sodium thiosulfate solution containing 50 mM sodium citrate. The sodium citrate was used to dissolve the alginate gel and release the bacteria into the solution. The neutralizer-citrate solution was placed in the refrigerator for 2 hours, than diluted and placed on R2A agar plates using pour plate technique. The plates were incubated at 35° C. for 24-48 hours and counted. The efficacy and toxicity of the neutralizer were checked as well as a control experiment without biocide addition. Four concentrations (0.5, 1, 2.5 and 5 ppm) were tested at four different contact times (5, 15, 30, and 60 min). Table 1-2 describe the surviving colony forming units (CFU) of the bacteria after different biocides treatment at different contact times.

Data set [2] in a line: Stability of the prepared halourea solution. The data set is classed as physicochemical. The following applies: aqueous chlorourea solution, 1.27% as total Cl2. As to the method:
In a 250 ml round bottom flask equipped with a magnetic stir bar, a dropping funnel and a thermocouple, 46.04 g urea (Mw 60, 767 mmol) was dissolved in 35.3 g H2O, followed by the addition (upon cooling, exothermic) of 5.37 g of 32% HCl (Mw 36.64, 46.9 mmol). To the solution was added upon cooling 13.3 g of an aq. 10.7% NaOCl solution (wt % as active Cl2, 20 mmol) during 14 min. A slightly yellow solution was obtained retaining 1.27% Cl2 (wt % as total Cl2, iodometric titration, in relation to 1.5% wt % theoretical as Cl2). […] The solution was stable for at least 1 week.
In a 250 ml round bottom flask equipped with a magnetic stir bar, a dropping funnel and a thermocouple, 46 g urea (Mw 60, 767 mmol) was dissolved in 31.8 g H2O, followed by the addition (upon cooling, exothermic) of 8.96 g of 48% HBr (Mw 80.92, 53.15 mmol). To the solution was added upon cooling 13.4 g of an aq. 10.7% NaOCl solution (wt %, as total Cl2, 20.2 mmol) during 10 min. An orange solution was obtained retaining 1% Cl2 (wt %, as total Cl2, iodometric titration, in relation to 1.43% theoretical). […] The solution was stable for at least 24 hrs.

Setting [3] is: biocide 0.5 ppm as Cl2, contact time 0 (min).
The mark [4] stands for this setting: biocide 0.5 ppm as Cl2, contact time 5 min.
Setting [5] is: biocide 0.5 ppm as Cl2, contact time 15 min.
Setting [6] is: biocide 0.5 ppm as Cl2, contact time 30 min.
Setting [7] is: biocide 0.5 ppm as Cl2, contact time 60 min.
The mark [8] stands for this setting: biocide 1 ppm as Cl2, contact time 0 (min).
The mark [9] stands for this setting: biocide 1 ppm as Cl2, contact time 5 min.
The mark [10] stands for this setting: biocide 1 ppm as Cl2, contact time 15 min.
Where [11] appears, read: biocide 1 ppm as Cl2, contact time 30 min.
Setting [12] is: biocide 1 ppm as Cl2, contact time 60 min.
Setting [13] is: biocide 2.5 ppm as Cl2, contact time 0 (min).
The mark [14] stands for this setting: biocide 2.5 ppm as Cl2, contact time 5 min.
[15] abbreviates: biocide 2.5 ppm as Cl2, contact time 15 min.
Setting [16] is: biocide 2.5 ppm as Cl2, contact time 30 min.
The mark [17] stands for this setting: biocide 2.5 ppm as Cl2, contact time 60 min.
The mark [18] stands for this setting: biocide 5 ppm as Cl2, contact time 0 (min).
Setting [19] is: biocide 5 ppm as Cl2, contact time 5 min.
Setting [20] is: biocide 5 ppm as Cl2, contact time 15 min.
Where [21] appears, read: biocide 5 ppm as Cl2, contact time 30 min.
The mark [22] stands for this setting: biocide 5 ppm as Cl2, contact time 60 min.

Where only a bound is given, the exact number is not on record here.

For `NC(=O)NBr` [bromourea], the “survival of bacteria (CFU)” value in data set [1] (setting [3]) is 9.22 × 10^6 CFU; in data set [1] (setting [4]) it was 8.10 × 10^6 CFU; in data set [1] (setting [5]) it was 8.00 × 10^6 CFU; in data set [1] (setting [6]), 3.50 × 10^6 CFU; in data set [1] (setting [7]), 7.37 × 10^5 CFU; in data set [1] (setting [8]) it was 9.22 × 10^6 CFU. In addition, the “survival of bacteria (CFU)” value was 9.30 × 10^6 CFU in data set [1] (setting [9]); 1.73 × 10^6 CFU in data set [1] (setting [10]); 1.00 × 10^4 CFU in data set [1] (setting [11]); <1.00 CFU in data set [1] (setting [12]); 9.22 × 10^6 CFU in data set [1] (setting [13]); 2.72 × 10^6 CFU in data set [1] (setting [14]). The “survival of bacteria (CFU)” value in data set [1] (setting [15]) is on record as 6.08 × 10^2 CFU; in data set [1] (setting [16]), 5.00 × 10^1 CFU; in data set [1] (setting [17]) it was <1.00 CFU; in data set [1] (setting [18]), 9.22 × 10^6 CFU; in data set [1] (setting [19]), 3.00 × 10^5 CFU; in data set [1] (setting [20]), <1.00 CFU. In addition, the “survival of bacteria (CFU)” value in data set [1] (setting [21]) and in data set [1] (setting [22]) was <1.00 CFU each time.

For the compound `NC(=O)NCl` [chlorourea], the “survival of bacteria (CFU)” value in data set [1] (setting [3]) is listed as 2.28 × 10^7 CFU; in data set [1] (setting [4]), 2.80 × 10^7 CFU; in data set [1] (setting [5]), 2.43 × 10^7 CFU; in data set [1] (setting [6]), 2.28 × 10^7 CFU; in data set [1] (setting [7]) it was 1.00 × 10^7 CFU; in data set [1] (setting [8]), 2.28 × 10^7 CFU. Moreover, the “survival of bacteria (CFU)” value in data set [1] (setting [9]) is listed as 1.89 × 10^7 CFU; in data set [1] (setting [10]), 1.61 × 10^7 CFU; in data set [1] (setting [11]), 1.66 × 10^7 CFU; in data set [1] (setting [12]), 6.40 × 10^5 CFU; in data set [1] (setting [13]), 2.28 × 10^7 CFU; in data set [1] (setting [14]), 2.20 × 10^7 CFU. Besides, the “survival of bacteria (CFU)” value in data set [1] (setting [15]) was 1.42 × 10^7 CFU; in data set [1] (setting [16]) it was 3.56 × 10^5 CFU; in data set [1] (setting [17]), 1.58 × 10^3 CFU; in data set [1] (setting [18]), 2.28 × 10^7 CFU; in data set [1] (setting [19]), 2.16 × 10^7 CFU; in data set [1] (setting [20]) it was 1.00 × 10^6 CFU. The entries for the “survival of bacteria (CFU)” value in data set [1] (setting [21]) and in data set [1] (setting [22]) were 3.25 × 10^3 CFU and <1.00 CFU, respectively. Moreover, in data set [2], the “time for which the solution was stable” value is listed as “at least 1 week”.
